According to PubChem BioAssay (NCI):
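Briefly, cells in 96-well plates were exposed to five compound concentrations for 48 h, and endpoints were estimated by linear interpolation. TGI marks complete inhibition of growth.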

Experiments:
Experiment in all cases: NCI-60 cell line screen, 48 h
MOLT-4 leukemia = test system: MOLT-4 leukemia
SK-OV-3 ovarian = test system: SK-OV-3 ovarian
OVCAR-8 ovarian = test system: OVCAR-8 ovarian
KM12 colon = test system: KM12 colon
UACC-257 melanoma = test system: UACC-257 melanoma
MCF7 breast = test system: MCF7 breast
MALME-3M melanoma = test system: MALME-3M melanoma
SR leukemia = test system: SR leukemia
DU-145 prostate = test system: DU-145 prostate
U251 CNS = test system: U251 CNS
HOP-92 NSCLC = test system: HOP-92 NSCLC
NCI-H23 lung = test system: NCI-H23 lung
SNB-75 CNS = test system: SNB-75 CNS
K-562 leukemia = test system: K-562 leukemia
CCRF-CEM leukemia = test system: CCRF-CEM leukemia
NCI/ADR-RES ovarian = test system: NCI/ADR-RES ovarian
HCT-116 colon = test system: HCT-116 colon
PC-3 prostate = test system: PC-3 prostate
SW-620 colon = test system: SW-620 colon
HCT-15 colon = test system: HCT-15 colon

## CCC(=O)O[C@H]1CC[C@H]2[C@@H]3CCC4=C/C(=N/OC(=O)c5cccc6cc7ccccc7nc56)CC[C@]4(C)[C@H]3CC[C@]12C
MOLT-4 leukemia
  TGI: > 100 µM
SK-OV-3 ovarian
  TGI: > 100 µM
OVCAR-8 ovarian
  TGI: > 100 µM
KM12 colon
  TGI: > 100 µM
UACC-257 melanoma
  TGI: > 100 µM
MCF7 breast
  TGI: > 100 µM
MALME-3M melanoma
  TGI: > 100 µM
SR leukemia
  TGI: > 100 µM
DU-145 prostate
  TGI: > 100 µM
U251 CNS
  TGI: > 100 µM
HOP-92 NSCLC
  TGI: > 100 µM
NCI-H23 lung
  TGI: > 100 µM
SNB-75 CNS
  TGI: > 100 µM
K-562 leukemia
  TGI: > 100 µM
CCRF-CEM leukemia
  TGI: > 100 µM
NCI/ADR-RES ovarian
  TGI: > 100 µM
HCT-116 colon
  TGI: > 100 µM
PC-3 prostate
  TGI: > 100 µM
SW-620 colon
  TGI: > 100 µM
HCT-15 colon
  TGI: > 100 µM

## CC(Oc1ccc(Cl)cc1Cl)C(=O)NN1C(=O)CSC1c1ccccc1 (stereo not given)
MOLT-4 leukemia
  TGI: > 100 µM
SK-OV-3 ovarian
  TGI: > 100 µM
OVCAR-8 ovarian
  TGI: > 100 µM
KM12 colon
  TGI: > 100 µM
UACC-257 melanoma
  TGI: > 100 µM
MCF7 breast
  TGI: > 100 µM
MALME-3M melanoma
  TGI: > 100 µM
SR leukemia
  TGI: 19.2 µM
DU-145 prostate
  TGI: > 100 µM
U251 CNS
  TGI: > 100 µM
HOP-92 NSCLC
  TGI: 83.8 µM
NCI-H23 lung
  TGI: > 100 µM
SNB-75 CNS
  TGI: > 100 µM
K-562 leukemia
  TGI: > 100 µM
CCRF-CEM leukemia
  TGI: > 100 µM
NCI/ADR-RES ovarian
  TGI: > 100 µM
HCT-116 colon
  TGI: > 100 µM
PC-3 prostate
  TGI: > 100 µM
SW-620 colon
  TGI: > 100 µM
HCT-15 colon
  TGI: > 100 µM

## CC1OC(OC2C(OC(=O)[C@]34CCC(C)(C)C[C@H]3C3=CC[C@@H]5[C@@]6(C)CC[C@H](OC7OC(CO)C(O)C(O)C7OC7OC(CO)C(O)C(O)C7O)C(C)(C)[C@@H]6CC[C@@]5(C)[C@]3(C)CC4)OCC(O)C2O)C(O)C(OC2OCC(O)C(O)C2O)C1OC1OCC(O)C(OC2OCC(O)C(O)C2O)C1O (stereo not given in full)
MOLT-4 leukemia
  TGI: 48.6 µM
SK-OV-3 ovarian
  TGI: > 69.5 µM
OVCAR-8 ovarian
  TGI: > 83.2 µM
KM12 colon
  TGI: 21.8 µM
UACC-257 melanoma
  TGI: 13.9 µM
MCF7 breast
  TGI: 58.3 µM
MALME-3M melanoma
  TGI: 18.3 µM
SR leukemia
  TGI: 16.2 µM
DU-145 prostate
  TGI: 38.3 µM
U251 CNS
  TGI: > 56.8 µM
HOP-92 NSCLC
  TGI: 20.2 µM
NCI-H23 lung
  TGI: 25.1 µM
SNB-75 CNS
  TGI: 40.8 µM
K-562 leukemia
  TGI: 23.2 µM
CCRF-CEM leukemia
  TGI: > 100 µM
NCI/ADR-RES ovarian
  TGI: > 100 µM
HCT-116 colon
  TGI: > 100 µM
PC-3 prostate
  TGI: 25.9 µM
SW-620 colon
  TGI: > 55.6 µM
HCT-15 colon
  TGI: > 79.4 µM

## CCOC(=O)C(CCN1CCC2(CC1)C(=O)N(C)CN2c1ccccc1)C(=O)OCC
MOLT-4 leukemia
  TGI: > 100 µM
SK-OV-3 ovarian
  TGI: > 100 µM
OVCAR-8 ovarian
  TGI: > 100 µM
KM12 colon
  TGI: > 100 µM
UACC-257 melanoma
  TGI: > 100 µM
MCF7 breast
  TGI: > 100 µM
MALME-3M melanoma
  TGI: > 100 µM
SR leukemia
  TGI: > 100 µM
DU-145 prostate
  TGI: > 100 µM
U251 CNS
  TGI: > 100 µM
HOP-92 NSCLC
  TGI: > 100 µM
NCI-H23 lung
  TGI: > 100 µM
SNB-75 CNS
  TGI: > 100 µM
K-562 leukemia
  TGI: > 100 µM
CCRF-CEM leukemia
  TGI: > 100 µM
NCI/ADR-RES ovarian
  TGI: > 100 µM
HCT-116 colon
  TGI: > 100 µM
PC-3 prostate
  TGI: > 100 µM
SW-620 colon
  TGI: > 100 µM
HCT-15 colon
  TGI: > 100 µM

## CCOC(=O)c1sc2c(c1OC(=O)c1ccc(OC)cc1)c(=O)n(-c1ccccc1)c(=S)n2-c1ccccc1
MOLT-4 leukemia
  TGI: > 100 µM
SK-OV-3 ovarian
  TGI: > 100 µM
OVCAR-8 ovarian
  TGI: > 100 µM
KM12 colon
  TGI: > 100 µM
UACC-257 melanoma
  TGI: > 100 µM
MCF7 breast
  TGI: > 100 µM
MALME-3M melanoma
  TGI: > 100 µM
SR leukemia
  TGI: 93.2 µM
DU-145 prostate
  TGI: > 100 µM
U251 CNS
  TGI: > 100 µM
HOP-92 NSCLC
  TGI: 63.4 µM
NCI-H23 lung
  TGI: > 100 µM
SNB-75 CNS
  TGI: > 100 µM
K-562 leukemia
  TGI: > 100 µM
CCRF-CEM leukemia
  TGI: > 100 µM
NCI/ADR-RES ovarian
  TGI: 72.2 µM
HCT-116 colon
  TGI: > 100 µM
PC-3 prostate
  TGI: > 100 µM
SW-620 colon
  TGI: > 100 µM
HCT-15 colon
  TGI: > 100 µM
